Results from ChEMBL document CHEMBL1649565, “Besifloxacin, a novel fluoroquinolone, has broad-spectrum in vitro activity against aerobic and anaerobic bacteria” (Antimicrob Agents Chemother, 2009).
Active and inactive are the calls of the source. No cut-off for these calls is given here.

How the values were obtained:
Enterobacter cloacae = experiment: Antibacterial activity against Enterobacter cloacae assessed as percent susceptible isolates by CLSI M7-A7 method; assay type: functional
Streptococcus oralis = experiment: Antibacterial activity against Streptococcus oralis by CLSI M100-S18 method; assay type: functional
[1] = system: Staphylococcus lugdunensis; experiment: Antibacterial activity against Staphylococcus lugdunensis by CLSI M100-S18 method; assay type: functional
Citrobacter freundii = experiment: Antibacterial activity against Citrobacter freundii by CLSI M7-A7 method; assay type: functional
[2] = Antibacterial activity against Lancefield Streptococcus sp. 'group C' by CLSI M100-S18 method; assay type: functional
Streptococcus pyogenes = experiment: Antibacterial activity against Streptococcus pyogenes by CLSI M100-S18 method; assay type: functional
Streptococcus pneumoniae [3] = experiment: Antibacterial activity against non-levofloxacin susceptible Streptococcus pneumoniae assessed as percent susceptible isolates by CLSI M100-S18 method; assay type: functional
Streptococcus anginosus = experiment: Antibacterial activity against Streptococcus anginosus by CLSI M100-S18 method; assay type: functional
Streptococcus pneumoniae [4] = experiment: Antibacterial activity against levofloxacin-susceptible Streptococcus pneumoniae by CLSI M100-S18 method; assay type: functional
Morganella morganii = experiment: Antibacterial activity against Morganella morganii by CLSI M7-A7 method; assay type: functional
Staphylococcus aureus [5] = experiment: Antibacterial activity against ciprofloxacin-susceptible and methicillin-resistant Staphylococcus aureus by CLSI M100-S18 method; assay type: functional
Staphylococcus warneri = experiment: Antibacterial activity against Staphylococcus warneri by CLSI M100-S18 method; assay type: functional
Enterococcus faecalis = experiment: Antibacterial activity against vancomycin- resistant Enterococcus faecalis by CLSI M100-S18 method; assay type: functional
Streptococcus agalactiae = experiment: Antibacterial activity against Streptococcus agalactiae by CLSI M100-S18 method; assay type: functional
Staphylococcus aureus [6] = experiment: Antibacterial activity against ciprofloxacin-susceptible and methicillin-resistant Staphylococcus aureus assessed as percent susceptible isolates by CLSI M100-S18 method; assay type: functional
Proteus mirabilis [7] = experiment: Antibacterial activity against Proteus mirabilis by CLSI M7-A7 method; assay type: functional
[8] = system: Staphylococcus haemolyticus; experiment: Antibacterial activity against Staphylococcus haemolyticus by CLSI M100-S18 method; assay type: functional
Listeria monocytogenes = experiment: Antibacterial activity against Listeria monocytogenes by CLSI M100-S18 method; assay type: functional
[9] = system: Staphylococcus epidermidis; experiment: Antibacterial activity against ciprofloxacin-susceptible and methicillin-resistant Staphylococcus epidermidis by CLSI M100-S18 method; assay type: functional
Streptococcus sanguinis = experiment: Antibacterial activity against Streptococcus sanguinis by CLSI M100-S18 method; assay type: functional
Moraxella catarrhalis = experiment: Antibacterial activity against Moraxella catarrhalis by CLSI M7-A7 method; assay type: functional
Haemophilus influenzae [10] = experiment: Antibacterial activity against ciprofloxacin-susceptible Haemophilus influenzae assessed as percent susceptible isolates by CLSI M7-A7 method; assay type: functional
Streptococcus sp. = experiment: Antibacterial activity against Lancefield Streptococcus sp. group F by CLSI M100-S18 method; assay type: functional
[11] = system: Streptococcus constellatus; experiment: Antibacterial activity against Streptococcus constellatus by CLSI M100-S18 method; assay type: functional
Streptococcus salivarius = experiment: Antibacterial activity against Streptococcus salivarius by CLSI M100-S18 method; assay type: functional
Legionella pneumophila = experiment: Antibacterial activity against Legionella pneumophila by CLSI M7-A7 method; assay type: functional
Klebsiella oxytoca = experiment: Antibacterial activity against Klebsiella oxytoca by CLSI M7-A7 method; assay type: functional
Acinetobacter baumannii = experiment: Antibacterial activity against Acinetobacter baumannii by CLSI M7-A7 method; assay type: functional
[12] = system: Acinetobacter calcoaceticus; experiment: Antibacterial activity against Acinetobacter calcoaceticus by CLSI M7-A7 method; assay type: functional
[13] = system: Staphylococcus saprophyticus; experiment: Antibacterial activity against Staphylococcus saprophyticus assessed as percent susceptible isolates by CLSI M100-S18 method; assay type: functional
Proteus mirabilis [14] = experiment: Antibacterial activity against Proteus mirabilis assessed as percent susceptible isolates by CLSI M7-A7 method; assay type: functional
Staphylococcus aureus [15] = experiment: Antibacterial activity against non-ciprofloxacin-susceptible and methicillin-susceptible Staphylococcus aureus by CLSI M100-S18 method; assay type: functional
Klebsiella aerogenes [16] = experiment: Antibacterial activity against Enterobacter aerogenes assessed as percent susceptible isolates by CLSI M7-A7 method; assay type: functional
[17] = system: Staphylococcus epidermidis; experiment: Antibacterial activity against non-ciprofloxacin-susceptible and methicillin-susceptible Staphylococcus epidermidis assessed as percent susceptible isolates by CLSI M100-S18 method; assay type: functional
Serratia marcescens [18] = experiment: Antibacterial activity against levofloxacin susceptible Serratia marcescens assessed as percent susceptible isolates by CLSI M7-A7 method; assay type: functional
Enterococcus faecium = experiment: Antibacterial activity against vancomycin- resistant Enterococcus faecium by CLSI M100-S18 method; assay type: functional
Klebsiella aerogenes [19] = experiment: Antibacterial activity against Enterobacter aerogenes by CLSI M7-A7 method; assay type: functional
Staphylococcus hominis = experiment: Antibacterial activity against Staphylococcus hominis by CLSI M100-S18 method; assay type: functional
[20] = system: Staphylococcus epidermidis
Klebsiella pneumoniae = experiment: Antibacterial activity against Klebsiella pneumoniae assessed as percent susceptible isolates by CLSI M7-A7 method; assay type: functional
[21] = Antibacterial activity against Lancefield Streptococcus sp. 'group G' by CLSI M100-S18 method; assay type: functional
Haemophilus influenzae [22] = experiment: Antibacterial activity against non-ciprofloxacin-susceptible Haemophilus influenzae assessed as percent susceptible isolates by CLSI M7-A7 method; assay type: functional
[23] = system: Staphylococcus lugdunensis; experiment: Antibacterial activity against Staphylococcus lugdunensis assessed as percent susceptible isolates by CLSI M100-S18 method; assay type: functional
Haemophilus influenzae [24] = experiment: Antibacterial activity against non-ciprofloxacin-susceptible Haemophilus influenzae by CLSI M7-A7 method; assay type: functional
Serratia marcescens [25] = experiment: Antibacterial activity against Serratia marcescens by CLSI M7-A7 method; assay type: functional
Streptococcus equinus = experiment: Antibacterial activity against Streptococcus bovis by CLSI M100-S18 method; assay type: functional

C[C@H]1COc2c(N3CCN(C)CC3)c(F)cc3c(=O)c(C(=O)O)cn1c23.C[C@H]1COc2c(N3CCN(C)CC3)c(F)cc3c(=O)c(C(=O)O)cn1c23.O [LEVOFLOXACIN]
Activity (Enterobacter cloacae): 92%
MIC50 (Streptococcus oralis): 1 µg/mL
MIC90 (Streptococcus oralis): 4 µg/mL
MIC50 [1]: 0.25 µg/mL
MIC90 [1]: > 8 µg/mL
MIC50 (Citrobacter freundii): 0.06 µg/mL
MIC90 (Citrobacter freundii): 2 µg/mL
MIC50 [2]: 0.5 µg/mL
MIC90 [2]: 0.5 µg/mL
MIC50 (Streptococcus pyogenes): 0.5 µg/mL
MIC90 (Streptococcus pyogenes): 0.5 µg/mL
Activity (Streptococcus pneumoniae [3]): 0%
MIC50 (Streptococcus anginosus): 1 µg/mL
MIC90 (Streptococcus anginosus): 1 µg/mL
MIC50 (Streptococcus pneumoniae [4]): 0.5 µg/mL
MIC90 (Streptococcus pneumoniae [4]): 0.5 µg/mL
MIC50 (Morganella morganii): 0.06 µg/mL
MIC90 (Morganella morganii): 8 µg/mL
MIC50 (Staphylococcus aureus [5]): 0.12 µg/mL
MIC90 (Staphylococcus aureus [5]): 0.25 µg/mL
MIC50 (Staphylococcus warneri): 0.12 µg/mL
MIC90 (Staphylococcus warneri): > 8 µg/mL
MIC50 (Enterococcus faecalis): 1 µg/mL
MIC90 (Enterococcus faecalis): 64 µg/mL
MIC (Streptococcus agalactiae): 0.5 µg/mL
MIC50 (Streptococcus agalactiae): 0.5 µg/mL
MIC90 (Streptococcus agalactiae): 0.5 µg/mL
Activity (Staphylococcus aureus [6]): 100%
MIC50 (Proteus mirabilis [7]): 0.03 µg/mL
MIC90 (Proteus mirabilis [7]): 8 µg/mL
MIC50 [8]: 4 µg/mL
MIC90 [8]: > 8 µg/mL
MIC50 (Listeria monocytogenes): 0.5 µg/mL
MIC90 (Listeria monocytogenes): 1 µg/mL
MIC [9]: 0.12 µg/mL
MIC50 [9]: 0.12 µg/mL
MIC50 (Streptococcus sanguinis): 1 µg/mL
MIC90 (Streptococcus sanguinis): 4 µg/mL
MIC50 (Moraxella catarrhalis): 0.015 µg/mL
MIC90 (Moraxella catarrhalis): 0.015 µg/mL
Activity (Haemophilus influenzae [10]): 100%
MIC50 (Streptococcus sp.): 0.5 µg/mL
MIC90 (Streptococcus sp.): 0.5 µg/mL
MIC50 [11]: 1 µg/mL
MIC90 [11]: 4 µg/mL
MIC50 (Streptococcus salivarius): 1 µg/mL
MIC90 (Streptococcus salivarius): 4 µg/mL
MIC50 (Legionella pneumophila): 0.03 µg/mL
MIC90 (Legionella pneumophila): 0.03 µg/mL
MIC50 (Klebsiella oxytoca): 0.03 µg/mL
MIC90 (Klebsiella oxytoca): 0.5 µg/mL
MIC50 (Acinetobacter baumannii): 8 µg/mL
MIC90 (Acinetobacter baumannii): 64 µg/mL
MIC50 [12]: 0.5 µg/mL
MIC90 [12]: 8 µg/mL
Activity [13]: 100%
Activity (Proteus mirabilis [14]): 76%
MIC50 (Staphylococcus aureus [15]): > 8 µg/mL
MIC90 (Staphylococcus aureus [15]): > 8 µg/mL
Activity (Klebsiella aerogenes [16]): 80%
Activity [17]: 0%
Activity (Serratia marcescens [18]): 100%
MIC50 (Enterococcus faecium): 32 µg/mL
MIC90 (Enterococcus faecium): 128 µg/mL
MIC50 (Klebsiella aerogenes [19]): 0.06 µg/mL
MIC90 (Klebsiella aerogenes [19]): 16 µg/mL
MIC50 (Staphylococcus hominis): 8 µg/mL
MIC90 (Staphylococcus hominis): > 8 µg/mL
MIC90 [20]: inactive
Activity (Klebsiella pneumoniae): 91%
MIC50 [21]: 0.5 µg/mL
MIC90 [21]: 0.5 µg/mL
Activity (Haemophilus influenzae [22]): 27.3%
Activity [23]: 66.7%
MIC50 (Haemophilus influenzae [24]): 8 µg/mL
MIC90 (Haemophilus influenzae [24]): 16 µg/mL
MIC50 (Serratia marcescens [25]): 0.12 µg/mL
MIC90 (Serratia marcescens [25]): 0.5 µg/mL
MIC50 (Streptococcus equinus): 1 µg/mL
MIC90 (Streptococcus equinus): 4 µg/mL
